The results in this text go back to patent US12606561B2, “Substituted pyrazolo[1,5-a][1,3,5]triazines as CDK inhibitors” (QURIENT CO., LTD., priority 2018, dated 2026).

As usually defined, the IC50 is the concentration that inhibits the measured activity by half.

The target of assay [1] is T1, CDK1/Cyclin B (Homo sapiens, UniProt P06493).
T1 construct: purchased Invitrogen PR4768C
Put plainly: Enzymatic assay for CDK1 (LANCE Ultra kinase assay, FRET based). Format: biochemical. As to conditions: ATP at Km; read-out: CDK1 enzymatic activity IC50. An outline of the steps: (§1)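 Inhibition of purified CDK/cyclin complexes was measured with ATP at its Km, using a ULight-labeled peptide substrate. Substrate phosphorylation was detected by FRET with a Europium-labeled anti-phospho-antibody.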

Assay [2] deals with T2, CDK2/Cyclin A (Homo sapiens, UniProt P24941).
T2 construct: purchased Invitrogen PV6290
Put plainly: Enzymatic assay for CDK2 (LANCE Ultra kinase assay, FRET based). Type of assay: biochemical. The settings on record: ATP at Km. Summed up: (§2)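 TR-FRET kinase assay at ATP Km with ULight-MBP peptide (68 nM) and Eu-anti-phospho-MBP antibody; CDK2/Cyclin A at […], CDK5/p25 at […]. 8-dose 4-fold compound dilutions; 60 min kinase reaction at 23° C., EDTA stop, 60 min detection, read at 615/665 nm.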
In general terms: TR-FRET usually uses a lanthanide donor and a delayed reading to cut background.

Assay [3] addresses T3, CDK5/p25 (Homo sapiens, UniProt Q00535).
T3 construct: purchased Invitrogen PR8543B
Put plainly: Enzymatic assay for CDK5 (LANCE Ultra kinase assay, FRET based). Type of assay: biochemical. The settings on record: ATP at Km. Summed up:
as §2

Assay [4] addresses T4, CDK7/Cyclin H/MNAT1 (Homo sapiens, UniProt P50613).
T4 construct: purchased Invitrogen PR6749B
Put plainly: Enzymatic assay for CDK7 (LANCE Ultra kinase assay, FRET based). As to conditions: for IC50: ATP at Km. Type of assay: biochemical. Summed up:
as §1

The test system of assay [5] is MV4-11. Put plainly: Cellular MV4-11 viability assay (CellTiter-Glo, 72 hours). Format: cell-based. The settings on record: Homo sapiens; MV4-11 cells. An outline of the steps:
(§3)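 Cells grown in RPMI-1640 with 10% FBS were seeded at 1×10^4/well (MV4-11), 5×10^3 (OVCAR-3) or 1×10^3 (A2780), then dosed 24 h later with compound at 0.0015 uM to 10 uM, DMSO <0.1%. Viability was read by CellTiter-Glo luminescence after 72 h at 37° C, in duplicate.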

Assay [6] concerns A2780. Put plainly: A2780 viability assay (CellTiter-Glo, 72 hours). Format: cell-based. The settings on record: Homo sapiens; A2780 cells. Summed up:
as §3

In assay [7] the test system is OVCAR-3. Put plainly: OVCAR-3 viability assay (CellTiter-Glo, 72 hours). The settings on record: Homo sapiens; OVCAR-3 cells. Type of assay: cell-based. An outline of the steps:
as §3

T4 sequence (P50613 whole entry): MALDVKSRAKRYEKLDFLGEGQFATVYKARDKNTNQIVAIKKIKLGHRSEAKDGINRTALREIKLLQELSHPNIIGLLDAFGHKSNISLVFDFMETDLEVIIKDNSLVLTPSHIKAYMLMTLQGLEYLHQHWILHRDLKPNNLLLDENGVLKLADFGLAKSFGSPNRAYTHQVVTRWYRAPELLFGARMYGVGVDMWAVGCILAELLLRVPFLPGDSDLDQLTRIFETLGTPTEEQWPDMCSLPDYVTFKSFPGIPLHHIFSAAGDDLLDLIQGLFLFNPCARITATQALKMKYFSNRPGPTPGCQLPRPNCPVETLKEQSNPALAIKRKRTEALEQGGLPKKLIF
T4 sequence (P51946 whole entry partner): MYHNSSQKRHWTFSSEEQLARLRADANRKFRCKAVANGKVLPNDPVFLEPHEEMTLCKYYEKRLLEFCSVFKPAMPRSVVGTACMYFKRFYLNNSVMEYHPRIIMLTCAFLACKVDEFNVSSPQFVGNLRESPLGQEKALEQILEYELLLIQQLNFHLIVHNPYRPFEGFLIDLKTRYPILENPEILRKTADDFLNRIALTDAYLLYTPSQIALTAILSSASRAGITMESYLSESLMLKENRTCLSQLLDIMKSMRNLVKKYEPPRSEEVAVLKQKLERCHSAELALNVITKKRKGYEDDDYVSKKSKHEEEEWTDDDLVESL
T4 sequence (P51948 whole entry partner): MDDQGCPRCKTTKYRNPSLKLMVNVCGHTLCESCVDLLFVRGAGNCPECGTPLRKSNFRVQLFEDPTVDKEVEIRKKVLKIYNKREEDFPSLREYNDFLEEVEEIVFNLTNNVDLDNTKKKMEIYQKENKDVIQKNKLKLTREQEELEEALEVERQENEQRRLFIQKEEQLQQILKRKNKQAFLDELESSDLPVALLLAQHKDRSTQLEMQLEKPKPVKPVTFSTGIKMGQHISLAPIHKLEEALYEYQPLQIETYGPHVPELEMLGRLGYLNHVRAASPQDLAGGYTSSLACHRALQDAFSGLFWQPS
T3 sequence (Q00535 whole entry): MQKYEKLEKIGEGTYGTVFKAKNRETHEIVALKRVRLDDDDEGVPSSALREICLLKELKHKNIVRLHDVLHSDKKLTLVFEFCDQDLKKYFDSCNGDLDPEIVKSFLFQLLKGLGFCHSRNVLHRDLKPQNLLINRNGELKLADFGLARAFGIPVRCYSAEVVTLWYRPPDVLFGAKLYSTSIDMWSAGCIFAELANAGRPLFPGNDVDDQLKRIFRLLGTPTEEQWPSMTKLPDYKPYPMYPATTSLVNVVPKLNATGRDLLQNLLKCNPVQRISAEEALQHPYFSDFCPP
T3 sequence (Q15078 99-307 partner limits assumed): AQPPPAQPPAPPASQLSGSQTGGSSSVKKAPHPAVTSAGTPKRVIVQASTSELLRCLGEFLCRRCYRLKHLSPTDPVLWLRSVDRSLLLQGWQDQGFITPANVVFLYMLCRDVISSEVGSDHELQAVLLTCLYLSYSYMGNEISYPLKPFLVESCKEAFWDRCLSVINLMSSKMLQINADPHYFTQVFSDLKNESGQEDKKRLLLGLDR
T1 sequence (P06493 whole entry): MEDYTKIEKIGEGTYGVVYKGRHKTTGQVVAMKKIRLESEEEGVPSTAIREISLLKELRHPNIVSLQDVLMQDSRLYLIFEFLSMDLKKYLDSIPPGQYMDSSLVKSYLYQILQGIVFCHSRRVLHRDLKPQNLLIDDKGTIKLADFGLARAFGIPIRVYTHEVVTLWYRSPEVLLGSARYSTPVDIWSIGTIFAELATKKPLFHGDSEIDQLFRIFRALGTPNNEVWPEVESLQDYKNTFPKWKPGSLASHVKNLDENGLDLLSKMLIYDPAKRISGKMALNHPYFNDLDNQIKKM
T1 sequence (P14635 whole entry partner): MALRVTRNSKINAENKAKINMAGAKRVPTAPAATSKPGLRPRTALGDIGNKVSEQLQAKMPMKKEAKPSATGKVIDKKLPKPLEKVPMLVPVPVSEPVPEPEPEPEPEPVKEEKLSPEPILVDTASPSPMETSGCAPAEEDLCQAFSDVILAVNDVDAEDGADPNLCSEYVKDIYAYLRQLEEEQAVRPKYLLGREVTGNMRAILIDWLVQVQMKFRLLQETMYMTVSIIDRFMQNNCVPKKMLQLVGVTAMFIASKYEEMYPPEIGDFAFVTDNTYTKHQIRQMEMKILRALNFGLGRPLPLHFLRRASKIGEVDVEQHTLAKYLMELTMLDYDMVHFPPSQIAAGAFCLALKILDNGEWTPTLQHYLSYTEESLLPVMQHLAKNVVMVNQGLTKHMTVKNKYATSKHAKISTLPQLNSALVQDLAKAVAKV

For `CC(C)c1cnn2c(NCc3ccccc3-c3nccc4cc(NC(=O)/C=C/CN5CCOCC5)ccc34)nc(N3CCC(N)CC3)nc12` [Compound 53], the IC50 in assay [1] was > 1 µM; in assay [2], > 1 µM; in assay [3], > 1 µM; in assay [4] it was < 0.1 µM; in assay [5], < 1 µM; in assay [6], < 1 µM. For the same molecule, in assay [7], the IC50 is < 1 µM. Moreover, in assay [4], the “CDK1/CDK7: Selectivity of CDK7 inhibition over CDK1 inhibition” value was “A (A indicates [fold] > 500)”. Moreover, the “CDK2/CDK7: Selectivity of CDK7 inhibition over CDK2 inhibition” value in assay [4] is “A (A indicates [fold] > 500)”. Moreover, in assay [4], the “CDK5/CDK7: Selectivity of CDK7 inhibition over CDK5 inhibition” value is “A (A indicates [fold] > 500)”.
Regarding `COC/C=C/C(=O)Nc1ccc2c(-c3ccccc3CNc3nc(N4CCC(N)CC4)nc4c(C(C)C)cnn34)nccc2c1` [Compound 54], the IC50 in assay [1] is > 1 µM; in assay [2], > 1 µM; in assay [3], > 1 µM; in assay [4] it was < 0.1 µM; in assay [5], < 1 µM; in assay [6], < 1 µM. In addition, in assay [7], the half-inhibitory concentration (IC50) was < 1 µM. In addition, in assay [4], the “CDK1/CDK7: Selectivity of CDK7 inhibition over CDK1 inhibition” value was “A (A indicates [fold] > 500)”. Besides, the “CDK2/CDK7: Selectivity of CDK7 inhibition over CDK2 inhibition” value in assay [4] was “A (A indicates [fold] > 500)”. Further, in assay [4], the “CDK5/CDK7: Selectivity of CDK7 inhibition over CDK5 inhibition” value was “A (A indicates [fold] > 500)”.
For the molecule `CC(C)c1cnn2c(NCc3ccccc3-c3ccnc4cc(NC(=O)/C=C/CN(C)C)ccc34)nc(N3CCC(N)CC3)nc12` [Compound 55], the half-maximal inhibitory concentration (IC50) is > 1 µM in assay [1]; > 1 µM in assay [2]; > 1 µM in assay [3]; < 0.1 µM in assay [4]; < 1 µM in assay [5]; < 1 µM in assay [6]. In addition, the 50% inhibitory concentration (IC50) in assay [7] was < 1 µM. The “CDK1/CDK7: Selectivity of CDK7 inhibition over CDK1 inhibition” value in assay [4] was “A (A indicates [fold] > 500)”. For the same molecule, the “CDK2/CDK7: Selectivity of CDK7 inhibition over CDK2 inhibition” value in assay [4] is “A (A indicates [fold] > 500)”. The “CDK5/CDK7: Selectivity of CDK7 inhibition over CDK5 inhibition” value in assay [4] was “B (B indicates 50 < [fold] ≤ 500)”.
In the case of `Cc1cccc(-c2ccc3cccc(NC(=O)/C=C/CN(C)C)c3n2)c1CNc1nc(N2CCC(N)CC2)nc2c(C(C)C)cnn12` [Compound 56], the IC50 was > 1 µM in assay [1]; > 1 µM in assay [2]; > 1 µM in assay [3]; < 0.1 µM in assay [4]; < 1 µM in assay [5]; < 1 µM in assay [6]. Further, in assay [7], the half-maximal inhibitory concentration (IC50) was < 1 µM. Further, the “CDK1/CDK7: Selectivity of CDK7 inhibition over CDK1 inhibition” value in assay [4] is “A (A indicates [fold] > 500)”. In addition, the “CDK2/CDK7: Selectivity of CDK7 inhibition over CDK2 inhibition” value in assay [4] is “A (A indicates [fold] > 500)”. Besides, in assay [4], the “CDK5/CDK7: Selectivity of CDK7 inhibition over CDK5 inhibition” value was “A (A indicates [fold] > 500)”.
`CC(C)c1cnn2c(NCc3ccccc3-c3nccc4cc(NC(=O)/C=C/CN5CCCC5)ccc34)nc(N3CCC(N)CC3)nc12` [Compound 57]: the 50% inhibitory concentration (IC50) is > 1 µM in assay [1]; > 1 µM in assay [2]; > 1 µM in assay [3]; < 0.1 µM in assay [4]; < 1 µM in assay [5]; < 1 µM in assay [6]. For the same molecule, in assay [7], the IC50 was < 1 µM. In addition, the “CDK1/CDK7: Selectivity of CDK7 inhibition over CDK1 inhibition” value in assay [4] was “A (A indicates [fold] > 500)”. In assay [4], the “CDK2/CDK7: Selectivity of CDK7 inhibition over CDK2 inhibition” value was “A (A indicates [fold] > 500)”. For the same molecule, the “CDK5/CDK7: Selectivity of CDK7 inhibition over CDK5 inhibition” value in assay [4] is “A (A indicates [fold] > 500)”.
As for `CC(C)c1cnn2c(NCc3ccccc3-c3nccc4cc(NC(=O)/C=C/CN(C)CC(N)=O)ccc34)nc(N3CCC(N)CC3)nc12` [Compound 58], the half-maximal inhibitory concentration (IC50) was > 1 µM in assay [1]; > 1 µM in assay [2]; > 1 µM in assay [3]; < 0.1 µM in assay [4]; < 1 µM in assay [5]; 1 to 10 µM in assay [6]. In assay [7], this molecule gave a half-inhibitory concentration (IC50) of 1 to 10 µM. Further, the “CDK1/CDK7: Selectivity of CDK7 inhibition over CDK1 inhibition” value in assay [4] was “A (A indicates [fold] > 500)”. Besides, the “CDK2/CDK7: Selectivity of CDK7 inhibition over CDK2 inhibition” value in assay [4] was “A (A indicates [fold] > 500)”. For the same molecule, the “CDK5/CDK7: Selectivity of CDK7 inhibition over CDK5 inhibition” value in assay [4] is “A (A indicates [fold] > 500)”.
